Earlier results on 58 compounds are cited in the CATMoS acute toxicity set (Mansouri et al. 2021).

“And” between values parts separate entries of the source, which are not always exact repeats. Identical values can stand only once.

The nature of this data set: rat acute oral toxicity. The settings on record: in vivo.
In the case of `CC/C=C1/OC(=O)c2ccccc21`, the LD50 is 1650 mg/kg. `C=C(C)C(=O)OCCOCCOCCOC(=O)C(=C)C`: the LD50 is 10800 mg/kg. For the compound `CCN(CC)CCOC1(c2ccc(Cl)cc2)CCCCC1`, the median lethal dose (LD50) is 500 mg/kg.

Consider `Oc1ccc(Cl)cc1-c1ccccc1`, for which the LD50 was 3500 mg/kg. For the compound `[O-][N+](=Nc1ccccc1)c1ccccc1`, the LD50 was 620 mg/kg. For `C[N+]1(C)CCC(=C(c2ccccc2)c2ccccc2)CC1`, the LD50 was 1110 mg/kg. On to `c1ccc(C2CCCCC2)c(OCCC2=NCCN2)c1`, for which the LD50 was 9.2 mg/kg. With `C/C=C\COCN(C(=O)CCl)c1c(CC)cccc1CC`, the LD50 is 1630 mg/kg. `C=C(C)CNc1ccc(C(C)C(=O)O)cc1` (stereo not drawn): the LD50 was 550 mg/kg. In the case of `CC[C@@H](C(=O)O)[C@@H]1O[C@@H]([C@@H](C)[C@H](O)[C@H](C)C(=O)[C@H](CC)[C@H]2O[C@]3(C=C[C@@H](O)[C@]4(CC[C@@](C)([C@H]5CC[C@](O)(CC)[C@H](C)O5)O4)O3)[C@H](C)C[C@@H]2C)[C@@H](C)C[C@@H]1C`, the LD50 is 18.5 mg/kg.

Turning to `O=C(O)C1CC=CCC1` (stereo not drawn), the LD50 is 4260 mg/kg. For `ClCC1OC1CCl` (stereo not drawn), the LD50 is 710 mg/kg.

For `C=COCCOCCOC=C`, the median lethal dose (LD50) is 3730 mg/kg.

With `CCBr`, the 50% lethal dose (LD50) is 1350 mg/kg. Turning to `OCCI`, the LD50 is 50 mg/kg. As to `CCCC(=O)N(C)C(=O)Oc1cc(C)cc(C(C)C)c1`, the LD50 was 1220 mg/kg. On to `CCSC(C)CC1CC(=O)C(C(=O)CC)C(=O)C1` (stereo not drawn), for which the median lethal dose (LD50) was 170 mg/kg.

Take `CCN1CCOCC1`: the 50% lethal dose (LD50) is 1780 mg/kg. In the case of `COc1ccc2c(c1)c(CC(=O)Oc1ccccc1C(=O)Oc1ccccc1C(=O)O)c(C)n2C(=O)c1ccc(Cl)cc1`, the LD50 was 63 mg/kg. Take `Clc1ccc(N2N=N[C@@H]3[C@@H]4C[C@@H]([C@H]5N=N[C@@H]45)[C@@H]32)cc1`: the median lethal dose (LD50) is 261 mg/kg. As for `Clc1c(Cl)c(Cl)c2c(c1Cl)Oc1ccccc1O2`, the median lethal dose (LD50) was 0.8 mg/kg. In the case of `CSC(C)=NOC(=O)N(C)SN(C)C(=O)Oc1ccc(OC(=O)N(C)SN(C)C(=O)ON=C(C)SC)cc1`, the LD50 is 453 mg/kg. Consider `CCCCCC[C@H]1C(=O)O[C@H](C)[C@H](NC(=O)c2cccc(NC=O)c2O)C(=O)O[C@@H](C)[C@@H]1OC(=O)CC(C)C`, for which the LD50 was 1470 mg/kg. As to `CCOP(=O)(OCC)Oc1ccc(S(C)(=O)=O)c(C)c1`, the 50% lethal dose (LD50) was 8.13 mg/kg. For `CC(C)c1ccc(-c2ccccc2)cc1`, the LD50 is 8500 mg/kg. For `O=P(O)(O)OCC(Cl)(Cl)Cl`, the LD50 was 850 mg/kg and 1900 mg/kg. As to `COc1cc(C(=O)OCCCN(C)CCN(C)CCCOC(=O)c2cc(OC)c(OC)c(OC)c2)cc(OC)c1OC`, the LD50 is 2550 mg/kg. Consider `C[C@H]1OC(O[C@H]2[C@@H](O)CC(O[C@H]3[C@@H](O)CC(O[C@H]4CC[C@@]5(C)[C@H](CC[C@@H]6[C@@H]5CC[C@]5(C)[C@@H](C7=CC(=O)OC7)[C@@H](OC=O)C[C@]65O)C4)O[C@@H]3C)O[C@@H]2C)C[C@H](O)[C@@H]1O` (stereo partly drawn), for which the LD50 is 30 mg/kg. Turning to `COc1cc(N)c(Cl)cc1C(=O)NC1CCN(CCCOc2ccc(F)cc2)CC1OC` (stereo not drawn), the median lethal dose (LD50) is 4170 mg/kg.

In the case of `COC(=O)c1cccc(N=NN(C)C)c1`, the median lethal dose (LD50) is 60 mg/kg. Turning to `FC(F)(F)C(F)(F)OC(F)(F)C(F)(F)F`, the LD50 is 20000 mg/kg. For the compound `CCC1(c2ccccc2)NC(=O)N(C)C1=O` (stereo not drawn), the LD50 is 850 mg/kg.

On to `CNC(=S)/C=C/c1ccc2c(c1)OCO2`, for which the LD50 was 230 mg/kg.

On to `COc1cc([C@@H]2c3cc4c(cc3C(O[C@@H]3O[C@@H]5CO[C@@H](C)O[C@H]5[C@H](O)[C@H]3O)C3COC(=O)[C@@H]32)OCO4)cc(OC)c1O` (stereo partly drawn), for which the LD50 is 1780 mg/kg. As for `CC(=O)Oc1ccccc1C(=O)OC(=O)c1ccccc1OC(C)=O`, the LD50 is 2200 mg/kg. For `O=c1occo1`, the LD50 was 300 mg/kg. For the compound `CCC1(C(C)CC(C)C)C(=O)NC(=O)NC1=O` (stereo not drawn), the LD50 was 75 mg/kg. As for `COC(=O)c1cc([N+](=O)[O-])ccc1Cl`, the LD50 was 5360 mg/kg. In the case of `CC(CCO)CCO`, the median lethal dose (LD50) is 7780 mg/kg. `CC(C)Cc1cccc2c(CC(=O)O)cccc12`: the median lethal dose (LD50) was 600 mg/kg. Consider `CN(C)CCC(c1ccccc1)c1ccccn1` (stereo not drawn), for which the LD50 was 520 mg/kg. Regarding `C/C(=C/CC[C@@]1(C)C2C[C@@H]3[C@H](C2)C31C)CO`, the LD50 was 3800 mg/kg. With `C[N+]1(C)CCC(OC(=O)C(O)(c2ccccc2)c2cccs2)C1` (stereo not drawn), the LD50 is 3580 mg/kg.

Consider `CCC1OC(C)SC1=NOC(=O)NC` (stereo not drawn), for which the LD50 was 15 mg/kg. As for `N#C[SeH]`, the 50% lethal dose (LD50) is 10 mg/kg.

On to `CC(CC1CCCCC1)NCCC(c1ccccc1)c1ccccc1` (stereo not drawn), for which the median lethal dose (LD50) is 1550 mg/kg. On to `FC(F)(F)C(Cl)(Cl)C(Cl)(Cl)C(F)(F)F`, for which the median lethal dose (LD50) was 800 mg/kg. On to `CCOC(=O)C(C(C)=O)C(=O)Cc1c(C)n(C(=O)c2ccc(Cl)cc2)c2ccc(OC)cc12` (stereo not drawn), for which the LD50 is 175 mg/kg. For `O=C(O)Cc1cc(O)ccc1Nc1c(Cl)cc(O)cc1Cl`, the LD50 is 1000 mg/kg.

As to `CCOC(=O)COP(=S)(OCC)OCC`, the LD50 was 1000 mg/kg.

As to `CCOCC(=O)Nc1ccc(C(=O)c2ccccc2)cc1C`, the 50% lethal dose (LD50) is 2280 mg/kg. As to `CCCC/C=C/C=O`, the LD50 was 1300 mg/kg. On to `Clc1cccc(SCc2nn[nH]n2)c1`, for which the LD50 was 2200 mg/kg. Take `CCCCCc1cc(O)c2c(c1)OC(C)(C)[C@@H]1CC=C(C)C[C@@H]21`: the LD50 is 860 mg/kg.

Take `CCCC(=O)Oc1ccc(OC)cc1`: the LD50 is 3400 mg/kg.

For the compound `O=C(O)CN(CCN(CC(=O)O)CC(=O)O)CCN(CC(=O)O)CC(=O)O`, the LD50 was 4550 mg/kg. For the compound `CC1(C)CC2(NC(=O)N(CCCN3CCC(O)CC3)C2=O)c2cc(Cl)ccc2O1` (stereo not drawn), the LD50 is 858 mg/kg. As to `CCOC(=O)Nc1cccc2c1CN(C)CC2c1ccc(Cl)cc1` (stereo not drawn), the 50% lethal dose (LD50) is 665 mg/kg.

The LD50 is the dose at which mortality reaches 50%.
